The structures appear in SMILES notation. Several values for one entry are separate records, joined by “and”; a condition that tells them apart may be missing. Equal values may be shown once. Activity calls are given as the source filed them. No rule for the calls is given here.

This assay deals with Gli-SUFU luciferase reporter cells, luminescence. Put plainly: Gli-SUFU pathway antagonists, SAR follow-up, cell-based, luciferase luminescence, set 1 (AID 651836).
In the case of `O=C(Nc1cc(N2CCCC2)ncn1)c1ccccc1F`, the IC50 is > 11.7 µM (inactive).
Next, `CCN(CC)c1cc(NC(=O)c2ccc(Br)o2)ncn1`: > 11.7 µM (inactive); `O=C(Nc1cc(N2CCCC2)ncn1)c1ccccc1`: > 11.7 µM (inactive).
For the compound `O=C(Nc1cc(N2CCCCC2)ncn1)c1ccc(Br)o1`, the IC50 is > 11.7 µM (inactive).
To `O=C(Nc1cc(N2CCCCC2)ncn1)c1ccc(C(F)(F)F)cc1` belongs > 11.7 µM (inactive).
Next, `CCOc1ccc(-c2nc(CSCC(=O)NC3CC3)c(C)o2)cc1`: 0.0378 µM; `O=C(Nc1cc(N2CCCCC2)ncn1)c1ccccc1C(F)(F)F`: > 11.7 µM (inactive); `O=C(Nc1cc(N2CCCCC2)ncn1)c1ccc(Cl)cc1`: > 11.7 µM (inactive).
To `COc1cc(OC)cc(C(=O)Nc2cc(N(C)C)ncn2)c1` belongs > 11.7 µM (inactive); to `CCCCN(C)c1cc(NC(=O)c2ccccc2)ncn1`, > 11.7 µM (inactive).
As to `O=C(Nc1cc(N2CCCCC2)ncn1)c1ccccc1`, the IC50 is 0.0566 µM and 0.0242 µM.
As for `CCN(CC)c1cc(NC(=O)c2cccc(F)c2)ncn1`, the IC50 is > 11.7 µM (inactive).
Turning to `CCN(CC)c1cc(NC(=O)c2ccccc2F)ncn1`, the IC50 was 0.556 µM.
For the compound `CC1CCCCN1c1cc(NC(=O)c2ccccc2)ncn1` (stereo unspecified), the IC50 is > 11.7 µM (inactive).
Next, `N#Cc1cccc(C(=O)Nc2cc(N3CCCCC3)ncn2)c1`: > 11.7 µM (inactive).
In the case of `CCOc1ccc(S(=O)(=O)NCc2ccncc2)cc1NC(=O)c1ccccc1`, the IC50 is 0.636 µM.
Next, `Cc1nc(NC(=O)c2ccccc2)cc(N2CCCCC2)n1`: > 11.7 µM (inactive); `O=C(Nc1cc(N2CCSCC2)ncn1)c1ccccc1`: > 11.7 µM (inactive); `N#Cc1ccc(C(=O)Nc2cc(N3CCCCC3)ncn2)cc1`: > 11.7 µM (inactive).
Next, `O=C(Nc1cc(N2CCCCC2)ncn1)c1ccsc1`: > 11.7 µM (inactive).
`CCN(CC)c1cc(NC(=O)c2ccccc2)ncn1`: the IC50 is > 11.7 µM (inactive).
`CCN(CC)c1cc(NC(=O)c2cccc(C#N)c2)ncn1`: the IC50 was > 11.7 µM (inactive).
To `CCN(CC)c1cc(NC(=O)c2ccccc2)nc(C)n1` belongs > 11.7 µM (inactive); to `CC(C)(C)OC(=O)N1CCN(c2cc(NC(=O)c3ccccc3)ncn2)CC1`, > 11.7 µM (inactive); to `O=C(Nc1cc(N2CCCCC2)ncn1)c1cc2ccccc2s1`, > 11.7 µM (inactive).
As to `O=C(Nc1cc(N2CCCCC2)ncn1)c1ccc2ccccc2c1`, the IC50 is > 11.7 µM (inactive).
To `CC(C)Nc1cc(NC(=O)c2ccccc2)ncn1` belongs > 11.7 µM (inactive); to `COc1cccc(C(=O)Nc2cc(N3CCCCC3)ncn2)c1`, > 11.7 µM (inactive); to `O=C(Nc1cc(N2CCNCC2)ncn1)c1ccccc1`, > 11.7 µM (inactive).
Regarding `CCN(CC)c1cc(NC(=O)c2cc(OC)cc(OC)c2)ncn1`, the IC50 was > 11.7 µM (inactive).
Next, `CC(C)CNc1cc(NC(=O)c2ccccc2)ncn1`: > 11.7 µM (inactive).
To `Cc1nc(NC(=O)c2ccccc2)cc(N(C)C)n1` belongs > 11.7 µM (inactive).
To `O=C(Nc1cc(N2CCCCCC2)ncn1)c1ccccc1` belongs 0.0741 µM; to `COc1cc(OC)cc(C(=O)Nc2cc(N3CCCCC3)ncn2)c1`, > 11.7 µM (inactive).
In the case of `CCC(C)Nc1cc(NC(=O)c2ccccc2)ncn1` (stereo unspecified), the IC50 is > 11.7 µM (inactive).
On to `COc1cc(OC)cc(C(=O)Nc2cc(Nc3cccc(Cl)c3)ncn2)c1`, for which the IC50 was > 11.7 µM (inactive).
In the case of `CN1CCN(c2cc(NC(=O)c3ccccc3)ncn2)CC1`, the IC50 was > 11.7 µM (inactive).
In the case of `Cc1ccc(C(=O)Nc2cc(N3CCCCC3)ncn2)cc1`, the IC50 was > 11.7 µM (inactive).
Next, `O=C(Nc1cc(N2CCCCC2)ncn1)c1cccc(F)c1`: > 11.7 µM (inactive).
Turning to `Cc1nc(NC(=O)c2ccccc2)cc(N2CCCC2)n1`, the IC50 was > 11.7 µM (inactive).
As to `O=C(Nc1cc(NCC2CCCO2)ncn1)c1ccccc1` (stereo unspecified), the IC50 is > 11.7 µM (inactive).
With `CC1CCN(c2cc(NC(=O)c3ccccc3)ncn2)CC1`, the IC50 was 0.037 µM.
To `COc1cc(OC)cc(C(=O)Nc2cc(N3CCCC3)ncn2)c1` belongs > 11.7 µM (inactive).
In the case of `O=C(Nc1cc(N2CCCC2)ncn1)c1cccc(F)c1`, the IC50 is > 11.7 µM (inactive).
Take `O=C(Nc1cc(N2CCCCC2)ncn1)c1cccs1`: the IC50 was > 11.7 µM (inactive).
Regarding `CN(C)c1cc(NC(=O)c2ccccc2)ncn1`, the IC50 is > 11.7 µM (inactive).
To `CCCCNc1cc(NC(=O)c2ccccc2)ncn1` belongs > 11.7 µM (inactive).
For the compound `O=C(Nc1cc(N2CCCCC2)ncn1)c1ccco1`, the IC50 was > 11.7 µM (inactive).
To `CN(C)c1cc(NC(=O)c2cccc(F)c2)ncn1` belongs > 11.7 µM (inactive).
For the compound `O=C(Nc1cc(N2CCCCC2)ncn1)c1ccccc1F`, the IC50 is 0.176 µM.
As to `CN(C)c1cc(NC(=O)c2ccccc2F)ncn1`, the IC50 is > 11.7 µM (inactive).
To `CN(C)c1cc(NC(=O)c2cccc(C#N)c2)ncn1` belongs > 11.7 µM (inactive); to `CC(C)(C)Nc1cc(NC(=O)c2ccccc2)ncn1`, > 11.7 µM (inactive).
To `O=C(Nc1cc(N2CCCCC2)ncn1)c1cccc2ccccc12` belongs > 11.7 µM (inactive); to `O=C(Nc1cc(N2CCOCC2)ncn1)c1ccccc1`, > 11.7 µM (inactive); to `CC(C)CNc1cc(NC(=O)c2cccc(F)c2)ncn1`, > 11.7 µM (inactive).

For orientation: IC50 means the concentration at which inhibition is half-maximal.

These data come from PubChem BioAssay AID651836 (Sanford-Burnham Center for Chemical Genomics, 2012).
